The text below walks through data of publication PMC6149668, “In Silico Identification and In Vitro Evaluation of Natural Inhibitors of Leishmania major Pteridine Reductase I” (Molecules : A Journal of Synthetic Chemistry and Natural …, 2017).

In data set [1] the target is T1, recombinant LmPTR1 (Leishmania major pteridine reductase I) (Leishmania major, UniProt Q01782).
T1 construct: poly-His (N); made in house; host or cells: E. coli BL21 (DE3)
Kind of data set: biochemical. Conditions: for % Inhibition at c = 50 µM: inhibitor 50 µM. As to the method: (§1) In order to assess the inhibitory activity of the compounds identified in silico, spectrophotometric inhibition assays were performed on recombinant LmPTR1, measuring the decreasing concentration of NADPH at 340 nm as a linear kinetic parameter for LmPTR1 activity at saturating concentrations of NADPH (co-substrate) and folic acid (substrate). First, each in silico hit was added to a concentration of 50 µM, and the resulting linear plots of absorbance vs. time were compared with those recorded in the absence of an inhibitor.
The determination of the inhibitory activity of the in silico hits was carried out by a UV-Vis spectrophotometric assay on recombinantly produced LmPTR1. In order to assess the catalytic activity of LmPTR1, the oxidation of NADPH to NADP^+ was followed with a Hitachi U-2900 UV-Vis spectrophotometer at 340 nm as a linear kinetic parameter. Reference measurements without the addition of inhibitors were used to determine the full catalytic activity (100% value), and subsequent measurements with inhibitory compounds were calculated accordingly. The total assay volume of 1 mL consisted of sodium phosphate buffer (50 mM NaH2PO4, 100 mM NaCl, pH 6), 250 µM NADPH, 35 µg LmPTR1, 22.5 µM folic acid, and varying inhibitor concentrations. The tested inhibitors were dissolved in DMSO (10 mM stock solutions), and appropriate volumes were added to the assays to obtain the desired assay concentrations in such a way that a DMSO concentration between 0.1–1% resulted. […] Initial tests were performed at an inhibitor concentration of 50 µM in triplicate.

Data set [2] is described as follows: Solubility under the LmPTR1 assay conditions. Conditions: sodium phosphate buffer pH 6, DMSO 0.1–1%. The format is physicochemical. As to the method: as §1, with “inhibitor. […] For 2,3-dehydrosilybin A (1), complete inhibition could not be achieved. The maximum of inhibition achieved with this compound was 64% at a concentration of 50 µM. […] Plots of the inhibitory activity as a function of concentration for compounds 1 to 6 are shown in the Supplementary Materials Figures S10–S15, and the resulting IC50 and EC50 values are reported in Table 1.” for “inhibitor.”
The determination of the inhibitory activity of the in silico hits was carried out by a UV-Vis spectrophotometric assay on recombinantly produced LmPTR1. […] Reference measurements without the addition of inhibitors were used to determine the full catalytic activity (100% value), and subsequent measurements with inhibitory compounds were calculated accordingly. […] No inhibition of LmPTR1 could be detected by DMSO itself at the mentioned concentrations. […]

Where [3] appears, read: in brackets: 95% confidence interval, n = 4 to 7 concentrations, non-linear regression, read-out: IC50.
Setting [4] is: pH 6, inhibitor 50 µM, 250 µM NADPH, 22.5 µM folic acid, pH 6, triplicate, n.i. = no inhibition at 50 µM, read-out: % Inhibition at c = 50 µM.
Where [5] appears, read: 250 µM NADPH, 22.5 µM folic acid, pH 6, triplicate, n.i. = no inhibition at 50 µM.

What is called pIC50 is the IC50 on a negative log10 scale, so that one unit is a factor of ten. By inhibition is commonly meant the change of the read-out against control, counted positive when it falls. The % Inhibition is the change of the read-out against control, counted positive when it falls. What is called pEC50 is the EC50 on a negative log10 scale, so that one unit is a factor of ten.

pEC50, pIC50: −log10 of the molar value. Read-outs that look alike come from different tables or passages of the source. Where only a bound is given, the exact number is not on record here.

T1 sequence (Q01782 whole entry): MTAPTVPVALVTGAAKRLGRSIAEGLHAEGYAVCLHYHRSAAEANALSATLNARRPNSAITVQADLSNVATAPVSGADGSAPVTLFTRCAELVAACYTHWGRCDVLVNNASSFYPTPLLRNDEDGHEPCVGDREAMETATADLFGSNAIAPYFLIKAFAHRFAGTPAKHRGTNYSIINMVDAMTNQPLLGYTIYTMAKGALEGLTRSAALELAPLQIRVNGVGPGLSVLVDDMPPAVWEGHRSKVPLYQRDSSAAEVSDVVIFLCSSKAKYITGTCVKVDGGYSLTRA

As to `CC(C)=CCc1c(O)cc2oc3cc(O)c(O)c(CCC(C)(C)O)c3c(=O)c2c1O` [garcinone C], the negative logarithm of the IC50 (pIC50) in data set [1] (setting [3]) is 4.58.

Take `COc1cc(O)c(CC=C(C)C)c2c1C(=O)CC(c1ccc(O)cc1)O2` (stereo not shown) [isoxanthohumol]: the inhibition at 50 µM in data set [1] (setting [4]) is 22%.

Turning to icariside II, the “% Inhibition at c = 50 µM” value in data set [1] (setting [5]) stood at 35%.

On to `O=C(/C=C/c1ccc(O)c(O)c1)O[C@H](Cc1ccc(O)c(O)c1)C(=O)O` [rosmarinic acid], for which the inhibition at 50 µM in data set [1] (setting [4]) came out at 20%.

In the case of phillyrin, the “% Inhibition at c = 50 µM” value in data set [1] (setting [5]) is “n.i”.

Take `O=c1c(O)c(-c2cc(O)c(O)c(O)c2)oc2cc(O)cc(O)c12` [myricetin]: in data set [1] (setting [3]), the pIC50 is 4.68. Moreover, the inhibition at 50 µM in data set [1] (pH 6, read-out: % Inhibition at c = 50 µM, inhibitor 50 µM, 250 µM NADPH, 22.5 µM folic acid, pH 6, triplicate, n.i. = no inhibition at 50 µM) was greater than 50%.

For the compound `COc1ccc([C@H]2OC[C@H]3[C@@H]2CO[C@@H]3c2cc(OC)c(OC)c(OC)c2)cc1OC` [magnolin], in data set [1] (setting [5]), the “% Inhibition at c = 50 µM” value is given as “n.i”.

`O=C(/C=C/c1ccc(O)c(O)c1/C=C/c1ccc(O)c(O)c1)O[C@H](Cc1ccc(O)c(O)c1)C(=O)O` [salvianolic acid A]: the pIC50 in data set [1] is 4.37. In data set [1] (setting [4]), the inhibition at 50 µM was greater than 50%.

On to `COc1cc([C@@H]2Oc3ccc([C@H]4Oc5cc(O)cc(O)c5C(=O)[C@@H]4O)cc3O[C@H]2CO)ccc1O` [isosilybin B], for which the inhibition at 50 µM in data set [1] (pH 6, read-out: % Inhibition at c = 50 µM) was 26%.

`COc1cc([C@@H]2Oc3c(O)cc([C@H]4Oc5cc(O)cc(O)c5C(=O)[C@@H]4O)cc3[C@H]2CO)ccc1O` [silychristin]: the inhibition at 50 µM in data set [1] (setting [4]) turned out to be 24%.

Regarding `COc1cc([C@H]2Oc3cc(-c4oc5cc(O)cc(O)c5c(=O)c4O)ccc3O[C@@H]2CO)ccc1O` [2,3-dehydrosilybin A], in data set [2], the “solubility under the assay conditions” value is given as “limited solubility”. For the same compound, the pEC50 in data set [1] was 5.14. Moreover, the inhibition at 50 µM in data set [1] (at a concentration of 50 µM, concentration-effect curve, read-out: maximum of inhibition achieved) is 64%; in data set [1] (setting [4]), greater than 50%.

In the case of `C=C(C)[C@H](CC=C(C)C)Cc1c(O)cc(O)c2c1O[C@H](c1ccc(O)cc1O)CC2=O` [sophoraflavanone G], the pIC50 in data set [1] (setting [3]) is 4.72.

In the case of `O=C(O[C@@H]1Cc2c(O)cc(O)cc2O[C@@H]1c1ccc(O)c(O)c1)c1cc(O)c(O)c(O)c1` [(−)-epicatechin-3-gallate], the inhibition at 50 µM in data set [1] (setting [4]) was found to be 24%.

Take `O=c1cc(-c2ccc(O)cc2)oc2cc(OC3OC(CO)C(O)C(O)C3O)cc(O)c12` (stereo not shown) [apigenin-7-glucoside]: the pIC50 in data set [1] was 4.36. In addition, in data set [1] (setting [4]), the inhibition at 50 µM was greater than 50%.

Take `COc1cc([C@H]2Oc3cc([C@H]4Oc5cc(O)cc(O)c5C(=O)[C@@H]4O)ccc3O[C@@H]2CO)ccc1O` [silybin A]: the inhibition at 50 µM in data set [1] (setting [4]) worked out at 14%.

On to `COc1cc([C@@H]2Oc3cc([C@H]4Oc5cc(O)cc(O)c5C(=O)[C@@H]4O)ccc3O[C@H]2CO)ccc1O` [silybin B], for which the inhibition at 50 µM in data set [1] (setting [4]) came out at 19%.
